Holding throughout (format): binding
Assay [1] addresses HLA B*5101 (Homo sapiens, UniProt P01889, A329T/A93T/A95T/C349S/D138N/D201E/D98Y/E187L/E204Q/E69T/G107R/I218V/K202T/L105A/L119W/N104I/Q94N/R106L/R155S/R180L/S101N/S121T/S35A/S48A/V306I/V36M/Y195H/Y91F).
For assay [2], the target named is H-2 D^d (Mus musculus, UniProt P01900).
Assay [3] addresses HLA A*6802 (Homo sapiens, UniProt P04439, A269V/D140Y/D185E/E176V/E277Q/E87N/F33Y/G231S/I121R/I166T/I218V/L180W/L300P/L318F/N151K/P208A/P217A/Q86R/R138H/R169H/S129P/T345S/V36M).
In assay [4] the target is HLA A*3201 (Homo sapiens, UniProt P04439, A270S/D101S/D185E/E176V/E277Q/F133L/G103R/G107R/G231S/H175R/I121M/I218V/I322F/K168Q/L105A/L300P/L318F/M331R/P208A/P217A/Q94H/R106L/R138Q/S129P/T104I/T323A/T345S/V100E/V321M/V358M). Nature of the assay: biochemical.
In assay [5] the target is HLA B*5401 (Homo sapiens, UniProt P01889, A329T/C349S/D138N/D201E/E176V/E187T/E204Q/E69G/I76V/K202T/L119W/R155S/R180L/S121T/S35A/S48A/V127L/V306I/V36M/Y140L).
The target in assay [6] is H-2 K^k (Mus musculus, UniProt P04223).
H-2 K^k, sequence (P01887 21-119): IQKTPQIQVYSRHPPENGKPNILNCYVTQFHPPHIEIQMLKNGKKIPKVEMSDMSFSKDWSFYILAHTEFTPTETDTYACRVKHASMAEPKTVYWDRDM
H-2 K^k, sequence (P04223 22-369): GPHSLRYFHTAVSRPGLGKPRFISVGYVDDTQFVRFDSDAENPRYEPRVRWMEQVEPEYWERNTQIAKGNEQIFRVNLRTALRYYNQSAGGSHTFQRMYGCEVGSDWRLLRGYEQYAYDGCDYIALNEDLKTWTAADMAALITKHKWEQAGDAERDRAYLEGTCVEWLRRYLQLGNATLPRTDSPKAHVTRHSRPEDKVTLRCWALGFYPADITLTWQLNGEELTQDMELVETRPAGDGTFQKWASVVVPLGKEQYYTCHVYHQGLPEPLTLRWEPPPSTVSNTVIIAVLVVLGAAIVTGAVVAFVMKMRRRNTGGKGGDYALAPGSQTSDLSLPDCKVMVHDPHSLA
Assay [7] has as its target H-2 D^b (Mus musculus, UniProt P01899).
In assay [8] the target is HLA B*5801 (Homo sapiens, UniProt P01889, A329T/C349S/D201E/D98Y/E176V/E187L/E204Q/E69T/G107R/I218V/I90N/K202T/L105A/L119I/N104I/N87E/Q89R/Q94S/R106L/R155S/R180L/R86G/S101N/S121R/S35A/S48A/T118I/V127L/V306I/V36M/Y140S/Y91M).
Assay [9] deals with HLA B*5301 (Homo sapiens, UniProt P01889, A329T/A93T/A95T/C349S/D201E/D98Y/E176V/E187L/E204Q/E69T/G107R/I218V/K202T/L105A/L119I/N104I/Q94N/R106L/R155S/R180L/S101N/S121R/S35A/S48A/T118I/V127L/V306I/V36M/Y140S/Y91F).
The target in assay [10] is HLA A*3001 (Homo sapiens, UniProt P04439, D140H/D185E/E176W/F33S/G80R/H175R/K168Q/R138E/R41S). Nature of the assay: biochemical.
Assay [11] has as its target HLA B*3501 (Homo sapiens, UniProt P01889, A329T/A93T/A95T/C349S/D201E/D98Y/E176V/E187L/E204Q/E69T/I218V/K202T/L119I/Q94N/R155S/R180L/S121R/S35A/S48A/T118I/V127L/V306I/V36M/Y140S/Y91F).
For assay [12], the target named is HLA B*0801 (Homo sapiens, UniProt P01889, A93T/A95T/D138N/E176V/E187T/K202T/Q94N/R180D/S35A/V36M/Y33D/Y91F). Nature of the assay: biochemical.
In assay [13] the target is HLA B*1503 (Homo sapiens, UniProt P01889, A329T/A93T/A95T/C349S/D201E/D98Y/E187L/E204Q/K202T/N87E/Q94N/R155S/R180L/S121R/S35A/V306I/V36M/Y140S/Y91S). Put plainly: biochemical.
In assay [14] the target is HLA B*5802 (Homo sapiens, UniProt P01889, A329T/C349S/D201E/D98Y/E176V/E187L/E204Q/E69T/G107R/I218V/I90N/K202T/L105A/N104I/N87E/Q89R/Q94S/R106L/R155S/R180L/R86G/S101N/S121W/S35A/S48A/V127L/V306I/V36M/Y140S/Y91M).
In assay [15] the target is H-2 K^d (Mus musculus, UniProt P01902).
H-2 K^d, sequence (P01887 21-119): as the sequence (P01887 21-119) above
H-2 K^d, sequence (P01902 22-368): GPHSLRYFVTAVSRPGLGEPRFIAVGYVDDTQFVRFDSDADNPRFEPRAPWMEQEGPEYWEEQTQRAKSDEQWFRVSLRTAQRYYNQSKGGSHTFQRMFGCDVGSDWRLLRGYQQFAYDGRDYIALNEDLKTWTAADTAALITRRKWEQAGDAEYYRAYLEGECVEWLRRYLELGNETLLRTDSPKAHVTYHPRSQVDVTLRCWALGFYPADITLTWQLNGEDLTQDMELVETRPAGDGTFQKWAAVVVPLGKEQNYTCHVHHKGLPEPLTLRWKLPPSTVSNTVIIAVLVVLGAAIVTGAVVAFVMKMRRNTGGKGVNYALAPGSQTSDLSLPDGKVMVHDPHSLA
Assay [16] deals with HLA B*1501 (Homo sapiens, UniProt P01889, A329T/A93T/A95T/C349S/D201E/D98Y/E187L/E204Q/E69M/E70A/K202T/N87E/Q94N/R155S/R180W/S121R/S35A/S48A/V306I/V36M/Y140S/Y91S). Nature of the assay: biochemical.

H-2 D^d, sequence (P01900 whole entry, looked up): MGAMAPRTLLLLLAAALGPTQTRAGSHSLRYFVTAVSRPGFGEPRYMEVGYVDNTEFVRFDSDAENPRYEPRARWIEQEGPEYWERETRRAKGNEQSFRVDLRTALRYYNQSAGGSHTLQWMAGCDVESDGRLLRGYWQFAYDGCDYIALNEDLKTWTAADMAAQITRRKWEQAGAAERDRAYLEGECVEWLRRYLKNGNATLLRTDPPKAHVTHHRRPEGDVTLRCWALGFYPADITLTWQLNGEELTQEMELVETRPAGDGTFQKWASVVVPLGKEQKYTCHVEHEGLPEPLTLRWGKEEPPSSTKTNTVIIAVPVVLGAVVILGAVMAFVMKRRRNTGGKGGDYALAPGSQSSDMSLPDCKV
H-2 D^b, sequence (P01887 21-119): as the sequence (P01887 21-119) above
H-2 D^b, sequence (P01899 25-362): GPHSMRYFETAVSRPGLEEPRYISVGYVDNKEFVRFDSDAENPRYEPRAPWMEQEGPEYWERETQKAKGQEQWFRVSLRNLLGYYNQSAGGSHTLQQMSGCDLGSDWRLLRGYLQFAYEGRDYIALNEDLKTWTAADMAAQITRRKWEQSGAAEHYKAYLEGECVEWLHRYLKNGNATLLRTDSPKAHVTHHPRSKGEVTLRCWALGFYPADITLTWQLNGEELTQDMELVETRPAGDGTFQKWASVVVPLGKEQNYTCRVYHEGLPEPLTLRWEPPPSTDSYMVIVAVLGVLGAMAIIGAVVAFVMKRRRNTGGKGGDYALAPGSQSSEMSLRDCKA

For the sequence XXXXXXXYX [3064.0160], the “Normalized average relative binding affinity(ARB)” value in [1] was 0.67; in assay [2], 0.40; in assay [3], 0.22; in assay [4], 0.24; in [5], 0.0018; in assay [6] it was 0.38. Besides, the “Normalized average relative binding affinity(ARB)” value in assay [7] came to 0.97; in assay [8] it was 0.42; in [9], 0.23; in assay [10], 1.0; in [11], 0.16; in [12], 0.13. In addition, the “Normalized average relative binding affinity(ARB)” value in [13] is reported as 0.17; in assay [14] it was 1.0; in assay [15], 0.56; in [16], 0.20.

Regarding XXXXXXYXX [3064.0140], the “Normalized average relative binding affinity(ARB)” value in [1] was 1.0; in [2], 0.076; in assay [3], 0.62; in assay [4], 0.55; in assay [5], 0.32; in assay [6] it was 0.092. In addition, the “Normalized average relative binding affinity(ARB)” value in assay [7] is 1.0; in [8], 0.94; in assay [9], 0.12; in assay [10], 0.20; in assay [11] it was 0.32; in assay [12], 0.27. Moreover, the “Normalized average relative binding affinity(ARB)” value in [13] amounted to 0.17; in [14], 0.069; in assay [15], 0.11; in assay [16], 0.28.

In the case of XXXXXYXXX [3064.0120], the “Normalized average relative binding affinity(ARB)” value in assay [1] is reported as 0.097; in assay [2] it was 0.83; in assay [3], 0.43; in assay [4], 0.38; in [5] it was 0.19; in assay [6], 0.35. In addition, the “Normalized average relative binding affinity(ARB)” value in assay [7] turned out to be 0.68; in assay [8] it was 1.0; in assay [9], 1.0; in [10] it was 0.21; in assay [11], 0.061; in assay [12] it was 0.0094. The “Normalized average relative binding affinity(ARB)” value in assay [13] is 0.40; in assay [14], 0.64; in assay [15] it was 0.26; in assay [16], 0.20.

Regarding XXXXYXXXX [3064.0100], the “Normalized average relative binding affinity(ARB)” value worked out at 0.26 in assay [1]; 0.24 in assay [2]; 0.27 in assay [3]; 0.28 in assay [4]; 0.084 in [5]; 0.14 in assay [6]. Further, the “Normalized average relative binding affinity(ARB)” value in assay [7] is on record as 0.013; in assay [8], 0.33; in assay [9], 0.087; in assay [10], 0.21; in [11] it was 0.22; in assay [12], 0.064. The “Normalized average relative binding affinity(ARB)” value in [13] is listed as 0.34; in assay [14], 0.62; in [15], 0.015; in assay [16], 0.95.

In the case of XXXYXXXXX [3064.0080], the “Normalized average relative binding affinity(ARB)” value is 0.88 in assay [1]; 1.0 in [2]; 0.44 in [3]; 0.71 in [4]; 0.26 in [5]; 0.24 in assay [6]. The “Normalized average relative binding affinity(ARB)” value in [7] turned out to be 0.63; in [8], 0.27; in assay [9], 0.29; in [10], 0.42; in assay [11], 0.085; in [12], 0.59. In addition, the “Normalized average relative binding affinity(ARB)” value in assay [13] is on record as 0.55; in [14] it was 0.49; in assay [15] it was 0.14; in assay [16] it was 0.41.

Values taken from paper PMC2248166, “Quantitative peptide binding motifs for 19 human and mouse MHC class I molecules derived using positional scanning combinatorial peptide libraries” (Immunome Research, 2008).
